Measurements as given in patent US20110274656A1, “PHARMACEUTICAL COMPOSITION FOR PREVENTING OR TREATING HEPATITIS C, COMPRISING THE ROOTS EXTRACT OF PLATYCODON GRANDIFLORUM OR PLATYCODON GRANDIFLORUM SAPONIN COMPONENTS” (B&C Biopharm Co., Ltd., priority 2009, published 2011).

Tested on: HCV subgenomic RNA replicon in Huh-7 human hepatoma cell line
Test: HCV RNA replication inhibitory activity in HCV replicon (subgenomic RNA replicon) cell line
Type: cell-based, HCV-1b Hepatitis C virus
Details: Huh-7 cells harboring HCV-1b subgenomic replicon, 72 hours, RT-PCR
Description: To screen a compound that is capable of inhibiting HCV replication, each compound was added to Huh-7 human hepatoma cell line harboring HCV RNA replicon, followed by culture. Then, expression level of HCV RNA was quantified and its inhibitory activity was measured. HCV replicon used in this invention was derived from HCV-1b Hepatitis C virus gene that was bicistronic replicon composed of HCV IRES, neomycin resistant gene, EMCV (encephalomyocarditis virus) IRES. HCV non-structural proteins were composed of the sequences comprising NS3-NS5B and HCV 3′end. An expression vector harboring HCV replicon proceeded to in vitro transcription, and the obtained HCV replicon was transfected into the Huh-7 cells by electroporation. To select only those cells having HCV replicon, Huh-7 cells were cultured with medium containing the antibiotic G418 (500 μg/ml). The selected cells were cultured with DMEM (Dulbecco's modified Eagles media) containing 10% FBS, non-essential amino acids and 500 μg/ml of G418.
Huh-7 cells harboring HCV subgenomic RNA replicon were cultured overnight in 6 well plate (3×10^5 cells/well), at 37° C. and 5% CO2 with DMEM containing 10% FBS, non-essential amino acids and 500 μg/ml of G418. Medium of each well was replaced with DMEM containing 2% FBS, non-essential amino acids and 500 μg/ml of G418. Test compound was dissolved in DMSO, which was added to each well at different concentrations, followed by culture in a 5% CO2 incubator at 37° C. for 72 hours. Equal amount of DMSO (negative control) and Interferon-α (positive control) were added as controls. Upon completion of the culture, medium of each well was eliminated, followed by washing with 1 ml of PBS. 250 μl/well of trypsin/EDTA was added thereto and cells were separated from the plate and washed with PBS again to eliminate medium. Total RNA was isolated from the cells by using SV total RNA isolation system (Promega corporation), followed by quantification using GeneQuant pro (Amersham bioscience). EC50 against HCV replicon of each compound was investigated by RT-PCR and the result was compared with those of controls. RT-PCR was performed with the primer targeting HCV 1b NS5B region and by AccessQuick™ RT-PCR system (Promega corporation). To obtain more accurate EC50 values, quantitative real-time PCR was performed along with RT-PCR. cDNA was obtained from the isolated RNA by using Reverse transcription system (Promega corporation), followed by quantitative real-time PCR using iQ SYBR Green Supermix (Bio-rad). At the same time, one-step real time RT-PCR was performed using Taqman probe to investigate the inhibitory activity of each compound. At this time, the primer targeting HCV 5′-UTR was used and GAPDH (Glyceraldehyde-3-phosphate dehydrogenase) gene was used as a reference gene for correction. Real time RT-PCR was performed by using iCycler iQ5 system (Bio-rad). The EC50 value was calculated by iCycler iQ5 optical system software (Bio-rad) program to determine the inhibitory activity. HCV replicon inhibitory activity of saponin components of Platycodon grandiflorum, the roots extract of Platycodon grandiflorum and the composition containing the same of the present invention and sapogenin and prosapogenin is shown in Table 7 and Table 8.

| Compound | Inhibitory Activity EC50 (HCV RNA replication inhibitory activity of saponin components) |
| --- | --- |
| COC(=O)C12CCC(C)(C)CC1C1=CCC3C4(C)CC(O)C(OC5OC(CO)C(O)C(O)C5O)C(CO)(CO)C4CCC3(C)C1(C)CC2O (stereo not shown) [Compound 18, platycodigenin 3-O-glucopyranoside 28-methyl ester] | >10 mg/L |
| C[C@@H]1O[C@@H](O[C@H]2[C@H](OC(=O)[C@]34CCC(C)(C)C[C@H]3C3=CC[C@@H]5[C@@]6(C)C[C@H](O)[C@H](O[C@@H]7O[C@H](CO)[C@@H](O)[C@H](O[C@@H]8O[C@H](CO)[C@@H](O)[C@H](O)[C@H]8O)[C@H]7O)C(CO)(CO)[C@@H]6CC[C@@]5(C)[C@]3(C)C[C@H]4O)OC[C@H](O)[C@@H]2O)[C@H](O)[C@H](O)[C@H]1O[C@@H]1OC[C@@H](O)[C@H](O[C@@H]2OC[C@](O)(CO)[C@H]2O)[C@H]1O [Compound 8, platycodin D2] | 0.1 mg/L |
| 2″-O-acetyl-deapiopolygalacin D2 [Compound 11] | >10 mg/L |
| CC1(C)CCC2(C(=O)O)C(O)CC3(C)C(=CCC4C5(C)CC(O)C(O)C(C)(CO)C5CCC43C)C2C1 (stereo not shown) [Compound 15, polygalacic acid] | 2 mg/L |
| CC1(C)CC[C@]2(C(=O)O)[C@H](O)C[C@]3(C)C(=CC[C@@H]4[C@@]5(C)C[C@H](O)[C@H](O)C(CO)(CO)[C@@H]5CC[C@]43C)[C@@H]2C1 [Compound 14, platycodigenin] | >10 mg/L |
| C[C@@H]1O[C@@H](O[C@H]2[C@H](OC(=O)[C@]34CCC(C)(C)C[C@H]3C3=CC[C@@H]5[C@@]6(C)C[C@H](O)[C@H](O[C@@H]7O[C@H](CO)[C@@H](O)[C@H](O)[C@H]7O)[C@](CO)(C(=O)O)[C@@H]6CC[C@@]5(C)[C@]3(C)C[C@H]4O)OC[C@H](O)[C@@H]2O)[C@H](O)[C@H](O)[C@H]1O[C@@H]1OC[C@@H](O)[C@H](O[C@@H]2OC[C@](O)(CO)[C@H]2O)[C@H]1O [Compound 6, platyconic acid A] | 0.2 mg/L |
| C[C@@H]1O[C@@H](O[C@H]2[C@H](OC(=O)[C@]34CCC(C)(C)C[C@H]3C3=CC[C@@H]5[C@@]6(C)C[C@H](O)[C@H](O[C@@H]7O[C@H](CO)[C@@H](O)[C@H](O)[C@H]7O)C(CO)(CO)[C@@H]6CC[C@@]5(C)[C@]3(C)C[C@H]4O)OC[C@H](O)[C@@H]2O)[C@H](O)[C@H](O)[C@H]1O[C@@H]1OC[C@@H](O)[C@H](O)[C@H]1O [Compound 9, deapioplatycodin D] | 0.2 mg/L |
| 2″-O-acetyl-polygalacin D2 [Compound 12] | 1 mg/L |
| C[C@@H]1O[C@@H](O[C@H]2[C@H](OC(=O)[C@]34CCC(C)(C)C[C@H]3C3=CC[C@@H]5[C@@]6(C)C[C@H](O)[C@H](O[C@@H]7O[C@H](CO)[C@@H](O)[C@H](O)[C@H]7O)C(CO)(CO)[C@@H]6CC[C@@]5(C)[C@]3(C)C[C@H]4O)OC[C@H](O)[C@@H]2O)[C@H](O)[C@H](O)[C@H]1O[C@@H]1OC[C@@H](O)[C@H](O[C@@H]2OC[C@](O)(CO)[C@H]2O)[C@H]1O [Compound 10, platycodin D] | 0.1 mg/L |
| C[C@@H]1O[C@@H](O[C@H]2[C@H](OC(=O)[C@]34CCC(C)(C)C[C@H]3C3=CC[C@@H]5[C@@]6(C)C[C@H](O)[C@H](O[C@@H]7O[C@H](CO)[C@@H](O)[C@H](O[C@@H]8O[C@H](CO)[C@@H](O)[C@H](O)[C@H]8O)[C@H]7O)C(CO)(CO)[C@@H]6CC[C@@]5(C)[C@]3(C)C[C@H]4O)OC[C@H](O)[C@@H]2O)[C@H](O)[C@H](O)[C@H]1O[C@@H]1OC[C@@H](O)[C@H](O)[C@H]1O [Compound 7, deapioplatycodin D2] | 0.2 mg/L |
| platycogenic acid A lactone [Compound 16] | 0.4 mg/L |
| COC(=O)C12CCC(C)(C)CC1C1=CCC3C4(C)CC(O)C(OC5OC(CO)C(O)C(OC6OC(CO)C(O)C(O)C6O)C5O)C(CO)(CO)C4CCC3(C)C1(C)CC2O (stereo not shown) [Compound 19, platycodigenin 3-O-laminaribioside 28-methyl ester] | >10 mg/L |
| platycogenic acid A lactone 3-O-glucopyranoside [Compound 17] | 2 mg/L |
| platyconic acid A methyl ester [Compound 13] | 5 mg/L |
| CC1OC(OC2C(OC(=O)C34CCC(C)(C)CC3C3=CCC5C6(C)CC(O)C(OC7OC(COC8OC(CO)C(O)C(O)C8O)C(O)C(O)C7O)C(CO)(CO)C6CCC5(C)C3(C)CC4O)OCC(O)C2O)C(O)C(O)C1OC1OCC(O)C(OC2OCC(O)(CO)C2O)C1O (stereo not shown) [Compound 3, platycodin D3] | 0.2 mg/L |
| C[C@@H]1O[C@@H](O[C@H]2[C@H](OC(=O)[C@]34CCC(C)(C)C[C@H]3C3=CC[C@@H]5[C@@]6(C)C[C@H](O)[C@H](O[C@@H]7O[C@H](CO[C@@H]8O[C@H](CO[C@@H]9O[C@H](CO)[C@@H](O)[C@H](O)[C@H]9O)[C@@H](O)[C@H](O)[C@H]8O)[C@@H](O)[C@H](O)[C@H]7O)C(CO)(CO)[C@@H]6CC[C@@]5(C)[C@]3(C)C[C@H]4O)OC[C@H](O)[C@@H]2O)[C@H](O)[C@H](O)[C@H]1O[C@@H]1OC[C@@H](O)[C@H](O[C@@H]2OC[C@](O)(CO)[C@H]2O)[C@H]1O [Compound 2, platycoside E] | 0.7 mg/L |
| C[C@@H]1O[C@@H](O[C@H]2[C@H](OC(=O)[C@]34CCC(C)(C)C[C@H]3C3=CC[C@@H]5[C@@]6(C)C[C@H](O)[C@H](O[C@@H]7O[C@H](CO[C@@H]8O[C@H](CO[C@@H]9O[C@H](CO)[C@@H](O)[C@H](O)[C@H]9O)[C@@H](O)[C@H](O)[C@H]8O)[C@@H](O)[C@H](O)[C@H]7O)C(CO)(CO)[C@@H]6CC[C@@]5(C)[C@]3(C)C[C@H]4O)OC[C@H](O)[C@@H]2O)[C@H](O)[C@H](O)[C@H]1O[C@@H]1OC[C@@H](O)[C@H](O)[C@H]1O [Compound 1, deapioplatycoside E] | >10 mg/L |
| C[C@@H]1O[C@@H](O[C@H]2[C@H](OC(=O)[C@]34CCC(C)(C)C[C@H]3C3=CC[C@@H]5[C@@]6(C)C[C@H](O)[C@H](O[C@@H]7O[C@H](CO)[C@@H](O)[C@H](O)[C@H]7O)[C@@](C)(CO)[C@@H]6CC[C@@]5(C)[C@]3(C)C[C@H]4O)OC[C@H](O)[C@@H]2O)[C@H](O)[C@H](O)[C@H]1O[C@@H]1OC[C@@H](O)[C@H](O[C@@H]2OC[C@](O)(CO)[C@H]2O)[C@H]1O [Compound 5, polygalacin D] | 0.8 mg/L |
| C[C@@H]1O[C@@H](O[C@H]2[C@H](OC(=O)[C@]34CCC(C)(C)C[C@H]3C3=CC[C@@H]5[C@@]6(C)C[C@H](O)[C@H](O[C@@H]7O[C@H](CO)[C@@H](O)[C@H](O[C@@H]8O[C@H](CO)[C@@H](O)[C@H](O)[C@H]8O)[C@H]7O)[C@@](C)(CO)[C@@H]6CC[C@@]5(C)[C@]3(C)C[C@H]4O)OC[C@H](O)[C@@H]2O)[C@H](O)[C@H](O)[C@H]1O[C@@H]1OC[C@@H](O)[C@H](O[C@@H]2OC[C@](O)(CO)[C@H]2O)[C@H]1O [Compound 4, polygalacin D2] | >10 mg/L |
